Calls of active or inactive are those of the source. The rule behind the calls is not given here.
Tests used:
Digitaria sanguinalis [1] = assay: Herbicidal activity against Digitaria sanguinalis (hairy crabgrass) in cucumber plants fields exposed to 400 kg/ha compound fumigation treatment assessed as hand weeding time per plot relative to untreated control; assay type: functional
Solanum lycopersicum [2] = assay: Increase in plant height of Solanum lycopersicum (tomato) exposed to 400 kg/ha compound fumigation treatment measured 30 days after compound treatment (reference value: 28.4 cm); assay type: functional
Arenaria serpyllifolia [3] = assay: Herbicidal activity against Arenaria serpyllifolia in cucumber plants fields exposed to 400 kg/ha compound fumigation treatment assessed as hand weeding time per plot (reference value: 258.3 hr/ha); assay type: functional
Solanum lycopersicum [4] = assay: Increase in crop yield in Cucumis sativus (cucumber) plants exposed to 400 kg/ha compound fumigation treatment assessed as large fruit yield (reference value: 19.5 ton/ha); assay type: functional
Solanum lycopersicum [5] = assay: Increase in crop yield in Solanum lycopersicum (tomato) plants exposed to 400 kg/ha compound fumigation treatment assessed as marketable yield fruit yield (reference value: 51.3 ton/ha); assay type: functional
Capsella bursa-pastoris [6] = assay: Herbicidal activity against Capsella bursa-pastoris in tomato plants fields exposed to 400 kg/ha compound fumigation treatment assessed as hand weeding time per plot relative to untreated control; assay type: functional
Botrytis cinerea = assay: Fungicidal activity against Botryotinia fuckeliana-induced withering in tomato plants at 400 kg/ha measured 20 to 60 days post compound treatment; assay type: functional, organism-based
Cucumis sativus [7] = assay: Increase in plant height of Cucumis sativus (cucumber) exposed to 400 kg/ha compound fumigation treatment measured 50 days after compound treatment (reference value: 103.2 cm); assay type: functional
Solanum lycopersicum [8] = assay: Increase in crop yield in Solanum lycopersicum (tomato) plants exposed to 400 kg/ha compound fumigation treatment assessed as medium fruit yield (reference value: 32.3 ton/ha); assay type: functional
Solanum lycopersicum [9] = assay: Increase in crop yield in Solanum lycopersicum (tomato) plants exposed to 400 kg/ha compound fumigation treatment assessed as large fruit yield (reference value: 15.2 ton/ha); assay type: functional
Capsella bursa-pastoris [10] = assay: Herbicidal activity against Capsella bursa-pastoris in cucumber plants fields exposed to 400 kg/ha compound fumigation treatment assessed as hand weeding time per plot relative to untreated control; assay type: functional
Arenaria serpyllifolia [11] = assay: Herbicidal activity against Arenaria serpyllifolia in cucumber plants fields exposed to 400 kg/ha compound fumigation treatment assessed as hand weeding time per plot relative to untreated control; assay type: functional
Arenaria serpyllifolia [12] = assay: Herbicidal activity against Arenaria serpyllifolia in tomato plants fields exposed to 400 kg/ha compound fumigation treatment assessed as hand weeding time per plot relative to untreated control; assay type: functional
Solanum lycopersicum [13] = assay: Increase in plant height of Solanum lycopersicum (tomato) exposed to 400 kg/ha compound fumigation treatment measured 50 days after compound treatment (reference value: 86.2 cm); assay type: functional
Solanum lycopersicum [14] = assay: Increase in crop yield in Solanum lycopersicum (tomato) plants exposed to 400 kg/ha compound fumigation treatment assessed as extra-large fruit yield (reference value: 3.8 ton/ha); assay type: functional
Solanum lycopersicum [15] = assay: Increase in crop yield in Cucumis sativus (cucumber) plants exposed to 400 kg/ha compound fumigation treatment assessed as medium fruit yield (reference value: 38.6 ton/ha); assay type: functional
Digitaria sanguinalis [16] = assay: Herbicidal activity against Digitaria sanguinalis (hairy crabgrass) in tomato plants fields exposed to 400 kg/ha compound fumigation treatment assessed as hand weeding time per plot (reference value: 243.3 hr/ha); assay type: functional
Arenaria serpyllifolia [17] = assay: Herbicidal activity against Arenaria serpyllifolia in tomato plants fields exposed to 400 kg/ha compound fumigation treatment assessed as hand weeding time per plot (reference value: 243.3 hr/ha); assay type: functional
Meloidogyne incognita [18] = assay: Nematicidal activity against Meloidogyne incognita (root-knot nematode) in cucumber growing fields exposed to 400 kg/ha compound fumigation treatment assessed as root galling index measured 20 days after compound treatment (reference value: 8.72 root galling index); assay type: functional
Meloidogyne incognita [19] = assay: Nematicidal activity against Meloidogyne incognita (root-knot nematode) in tomato growing fields exposed to 400 kg/ha compound fumigation treatment assessed as root galling index measured 20 days after compound treatment (reference value: 8.51 root galling index); assay type: functional
Cucumis sativus [20] = assay: Increase in plant height of Cucumis sativus (cucumber) exposed to 400 kg/ha compound fumigation treatment measured 30 days after compound treatment (reference value: 85.6 cm); assay type: functional
Capsella bursa-pastoris [21] = assay: Herbicidal activity against Capsella bursa-pastoris in tomato plants fields exposed to 400 kg/ha compound fumigation treatment assessed as hand weeding time per plot (reference value: 243.3 hr/ha); assay type: functional
Digitaria sanguinalis [22] = assay: Herbicidal activity against Digitaria sanguinalis (hairy crabgrass) in cucumber plants fields exposed to 400 kg/ha compound fumigation treatment assessed as hand weeding time per plot (reference value: 258.3 hr/ha); assay type: functional
Solanum lycopersicum [23] = assay: Increase in crop yield in Cucumis sativus (cucumber) plants exposed to 400 kg/ha compound fumigation treatment assessed as extra-large fruit yield (reference value: 7.2 ton/ha); assay type: functional
Solanum lycopersicum [24] = assay: Increase in crop yield in Cucumis sativus (cucumber) plants exposed to 400 kg/ha compound fumigation treatment assessed as marketable yield fruit yield (reference value: 65.3 ton/ha); assay type: functional
Capsella bursa-pastoris [25] = assay: Herbicidal activity against Capsella bursa-pastoris in cucumber plants fields exposed to 400 kg/ha compound fumigation treatment assessed as hand weeding time per plot (reference value: 258.3 hr/ha); assay type: functional
Digitaria sanguinalis [26] = assay: Herbicidal activity against Digitaria sanguinalis (hairy crabgrass) in tomato plants fields exposed to 400 kg/ha compound fumigation treatment assessed as hand weeding time per plot relative to untreated control; assay type: functional
Phytophthora melonis = assay: Fungicidal activity against Phytophthora melonis-induced blight disease in cucumber plants at 400 kg/ha measured 20 to 60 days post compound treatment; assay type: functional, organism-based

With `CBr` [BROMOMETHANE] the Activity (Digitaria sanguinalis [1]) was 45%, the Activity (Solanum lycopersicum [2]) was 43.5 cm and the Time (Arenaria serpyllifolia [3]) was 41.9 hr/ha. It also gave a Crop_yield (Solanum lycopersicum [4]) of 32.3 tons/ha, a Crop_yield (Solanum lycopersicum [5]) of 76.6 tons/ha and an Activity (Capsella bursa-pastoris [6]) of 45%. For the same compound, the Activity (Botrytis cinerea) was “Active”, the Activity (Cucumis sativus [7]) was 132.6 cm and the Crop_yield (Solanum lycopersicum [8]) was 46.6 tons/ha. It also gave a Crop_yield (Solanum lycopersicum [9]) of 21.7 tons/ha, an Activity (Capsella bursa-pastoris [10]) of 45% and an Activity (Arenaria serpyllifolia [11]) of 45%. It also gave an Activity (Arenaria serpyllifolia [12]) of 45%, an Activity (Solanum lycopersicum [13]) of 118.7 cm and a Crop_yield (Solanum lycopersicum [14]) of 8.3 tons/ha. It also gave a Crop_yield (Solanum lycopersicum [15]) of 55.3 tons/ha, a Time (Digitaria sanguinalis [16]) of 35.2 hr/ha and a Time (Arenaria serpyllifolia [17]) of 35.2 hr/ha. For the same compound, the Root_galling_index (Meloidogyne incognita [18]) was 3.24, the Root_galling_index (Meloidogyne incognita [19]) was 3.54 and the Activity (Cucumis sativus [20]) was 108.6 cm. The Time (Capsella bursa-pastoris [21]) was 35.2 hr/ha, the Time (Digitaria sanguinalis [22]) was 41.9 hr/ha and the Crop_yield (Solanum lycopersicum [23]) was 14.3 tons/ha. It also gave a Crop_yield (Solanum lycopersicum [24]) of 101.9 tons/ha, a Time (Capsella bursa-pastoris [25]) of 41.9 hr/ha and an Activity (Digitaria sanguinalis [26]) of 45%. The Activity (Phytophthora melonis) was “Active”.

From ChEMBL document CHEMBL3046912, “Effectiveness of 1,3-dichloropropene as an alternative to methyl bromide in rotations of tomato (Solanum lycopersicum) and cucumber (Cucumis sativus) in China” (2012)
